Experimental data published in article PMC12486805, “Preclinical evaluation of tridecaptin M: in vitro and in vivo efficacy against colistin-resistant Gram-negative bacterial pathogens and pharmacokinetics” (Antimicrobial Agents and Chemotherapy, 2025).
Values after ≈ are worked out from the molar mass of the structure shown. Like-named read-outs stand apart in the source and are kept apart here. Where a SMILES comes first, the peptide text is derived from it. [ ]: non-standard residue; d: D form. The star is where a group is joined. d(aIle) = CC[C@H](C)[C@@H](N)C(=O)O; X1 = CC[C@H](C)CCCCC(=O)*; dDab = NCC[C@@H](N)C(=O)O; Dab = NCC[C@H](N)C(=O)O

Key:
[1] = system: Salmonella typhimurium; assay type: cell-based
Description: The Salmonella typhimurium histidine-dependent engineered tester strains are allowed to incubate with S9 enzyme mix or PBS (without S9 set) for 30 min at 35°C. After incubation, the mixture was added to 2 mL of top agar tubes maintained at 46 ± 2°C and plated onto minimal glucose agar plates. After solidification, the plates are incubated at 37°C. Salmonella typhimurium auxotrophic mutants, if grown on minimal media, are counted as the number of revertant colonies due to the mutagenic potential of the compound tested. Positive controls, growth controls, and sterility checks are included during the experimentation for the sensitivity of the experiment ([38]).

[2] = system: K. pneumoniae; assay type: cell-based, Klebsiella pneumoniae
Description: The MIC for all isolates was determined using the broth microdilution method. This involved preparing CA-MHB medium and serially diluting antibiotic solutions by a factor of two. The test organism was adjusted to a concentration of ≈5 × 10^5 CFU/mL. In a sterile 96-well microtiter plate, 100 µL of CA-MHB, along with 100 µL of each antibiotic, was added, and serial dilutions were made. A 100 µL suspension of the organism was added to each well and mixed, resulting in a total reaction volume of 200 µL per well. The plate was then incubated at 37°C for 16–18 h. The MIC was identified as the lowest concentration of antibiotic that prevented any visible growth of the organism ([16]).

[3] = molecular target: T1, hERG channel (Homo sapiens, UniProt Q12809); experiment: hERG channel inhibition, patch clamp on HEK293 cells expressing hERG; assay type: cell-based
T1 construct: expressed in transfected cells; host or cells: HEK293
Description: The experiment starts upon reaching a resistance of 2-3.5 MOhm. A 5 µL cell suspension is added after generating a suction pulse to capture a cell, increasing resistance to 5 MOhm, and triggering the sealing step. […] A hERG protocol measures ion current every 10 s with voltage steps: holding at −80 mV, depolarizing to +40 mV, and repolarizing to −40 mV. Stable current is achieved in ~2 min. […]

[4] = in vitro; settings: human, plasma
Description: Plasma protein binding was assessed using the rapid equilibrium dialysis (RED) method, utilizing RED insert devices with a dialysis membrane featuring an 8,000 Dalton molecular weight cutoff for proteins. The test/control items in human, rat, and mouse plasma were prepared at a test concentration of 10 µM using 10 mM DMSO stocks, and the samples were added to the plasma chamber of the RED insert. The device was sealed with tape and incubated in a thermomixer at 37°C with shaking at 300 rpm for 4 h. Following incubation, a 50 µL aliquot of plasma and buffer was collected from each insert and diluted with an equal volume of the opposite matrix to mitigate matrix effects. The samples were quantified using LC-MS/MS analysis and were tested in duplicates.

T1 sequence (Q12809 whole entry): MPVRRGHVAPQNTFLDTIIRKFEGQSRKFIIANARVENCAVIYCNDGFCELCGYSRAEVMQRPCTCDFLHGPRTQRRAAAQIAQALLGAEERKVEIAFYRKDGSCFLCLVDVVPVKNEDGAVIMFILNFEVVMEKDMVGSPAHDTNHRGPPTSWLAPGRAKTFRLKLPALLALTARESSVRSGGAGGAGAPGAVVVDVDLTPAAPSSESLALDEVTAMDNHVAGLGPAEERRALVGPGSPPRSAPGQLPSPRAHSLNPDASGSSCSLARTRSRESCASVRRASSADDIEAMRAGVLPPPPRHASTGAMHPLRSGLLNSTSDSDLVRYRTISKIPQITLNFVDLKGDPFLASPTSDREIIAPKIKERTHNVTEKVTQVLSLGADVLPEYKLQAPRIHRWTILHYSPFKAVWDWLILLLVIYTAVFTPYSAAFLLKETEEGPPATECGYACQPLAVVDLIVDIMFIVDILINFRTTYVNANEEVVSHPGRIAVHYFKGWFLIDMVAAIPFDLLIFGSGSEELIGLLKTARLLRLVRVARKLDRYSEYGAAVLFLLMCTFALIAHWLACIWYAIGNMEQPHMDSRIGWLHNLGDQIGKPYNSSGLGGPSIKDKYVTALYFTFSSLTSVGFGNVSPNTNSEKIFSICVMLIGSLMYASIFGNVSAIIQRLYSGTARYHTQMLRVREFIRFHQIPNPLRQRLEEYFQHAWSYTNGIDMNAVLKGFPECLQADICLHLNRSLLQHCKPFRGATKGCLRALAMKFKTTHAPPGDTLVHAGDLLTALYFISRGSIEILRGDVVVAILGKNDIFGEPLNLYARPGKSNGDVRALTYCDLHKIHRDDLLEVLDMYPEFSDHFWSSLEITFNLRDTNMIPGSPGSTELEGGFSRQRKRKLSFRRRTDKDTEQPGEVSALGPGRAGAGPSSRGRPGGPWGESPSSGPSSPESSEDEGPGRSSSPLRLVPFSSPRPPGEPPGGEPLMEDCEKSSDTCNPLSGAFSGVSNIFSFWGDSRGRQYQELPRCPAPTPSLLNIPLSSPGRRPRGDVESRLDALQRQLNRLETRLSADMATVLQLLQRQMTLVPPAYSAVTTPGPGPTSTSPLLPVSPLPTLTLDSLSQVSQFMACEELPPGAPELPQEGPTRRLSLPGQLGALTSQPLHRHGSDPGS

Structure (SMILES): CC[C@H](C)CCCCC(=O)NCC(=O)N[C@H](CCN)C(=O)NCC(=O)N[C@H](CO)C(=O)N[C@H](Cc1c[nH]c2ccccc12)C(=O)N[C@@H](CO)C(=O)N[C@@H](CCN)C(=O)N[C@H](CCN)C(=O)N[C@H](C(=O)N[C@@H](CCC(=O)O)C(=O)N[C@H](C(=O)N[C@@H](C(=O)N[C@@H](CO)C(=O)O)[C@@H](C)CC)[C@@H](C)CC)[C@@H](C)CC [Tridecaptin M, tridecaptin M] (X1-G[dDab]G[dS][dW]S[Dab][dDab]IEI[d(aIle)]S-OH)
- AMES test Remark ([1]; 0.03 μg/plate): Mutagenic response not observed
- AMES test TA98 ([1]; 0.03 μg/plate): NC, NR
- AMES test TA100 ([1]; 0.03 μg/plate): NC, NR
- AMES test TA102 ([1]; 0.03 μg/plate): NC, NR
- AMES test TA1535 ([1]; 0.03 μg/plate): NC, NR
- AMES test TA1537 ([1]; 0.03 μg/plate): NC, NR
- AMES test Remark ([1]; 0.10 μg/plate): Mutagenic response not observed
- AMES test TA98 ([1]; 0.10 μg/plate): NC, NR
- AMES test TA100 ([1]; 0.10 μg/plate): NC, NR
- AMES test TA102 ([1]; 0.10 μg/plate): NC, NR
- AMES test TA1535 ([1]; 0.10 μg/plate): NC, NR
- AMES test TA1537 ([1]; 0.10 μg/plate): NC, NR
- AMES test Remark ([1]; 0.32 μg/plate): Mutagenic response not observed
- AMES test TA98 ([1]; 0.32 μg/plate): NC, NR
- AMES test TA100 ([1]; 0.32 μg/plate): NC, NR
- AMES test TA102 ([1]; 0.32 μg/plate): NC, NR
- AMES test TA1535 ([1]; 0.32 μg/plate): NC, NR
- AMES test TA1537 ([1]; 0.32 μg/plate): NC, NR
- AMES test Remark ([1]; 1.00 μg/plate): Mutagenic response not observed
- AMES test TA98 ([1]; 1.00 μg/plate): NC, NR
- AMES test TA100 ([1]; 1.00 μg/plate): NC, NR
- AMES test TA102 ([1]; 1.00 μg/plate): NC, NR
- AMES test TA1535 ([1]; 1.00 μg/plate): NC, NR
- AMES test TA1537 ([1]; 1.00 μg/plate): NC, NR
- AMES test Remark ([1]; 3.16 μg/plate): Mutagenic response not observed
- AMES test TA98 ([1]; 3.16 μg/plate): NC, NR
- AMES test TA100 ([1]; 3.16 μg/plate): NC, NR
- AMES test TA102 ([1]; 3.16 μg/plate): NC, NR
- AMES test TA1535 ([1]; 3.16 μg/plate): NC, NR
- AMES test TA1537 ([1]; 3.16 μg/plate): NC, NR
- AMES test Remark ([1]; 10 μg/plate): Cytotoxicity observed
- AMES test TA98 ([1]; 10 μg/plate): PI, RC
- AMES test TA100 ([1]; 10 μg/plate): PI, RC
- AMES test TA102 ([1]; 10 μg/plate): PI, RC
- AMES test TA1535 ([1]; 10 μg/plate): PI, RC
- AMES test TA1537 ([1]; 10 μg/plate): PI, RC
- effect on Salmonella typhimurium tester strains ([1]; 10 µg/plate and above): cytotoxic
- mutagenic potential ([1]; 3.16, 1.00, 0.32 and 0.10 µg/plate, presence and absence of S9): did not show any mutagenic potential
- MIC [2]: 4 µg/mL (≈ 2.69 µM)
- MIC90 [2]: 8 µg/mL (≈ 5.37 µM)
- MIC range [2]: 2 to 8 µg/mL
- MIC values [2]: 2 to 8 µg/mL
- Mean current ([3]; 0.1 µM): 4.41E-10 A
- Mean current ([3]; 0.3 µM): 4.66E-10 A
- Mean current ([3]; 1 µM): 4.64E-10 A
- Mean current ([3]; 3 µM): 4.58E-10 A
- Mean current ([3]; 10 µM): 4.34E-10 A
- Mean current ([3]; 30 µM): 4.68E-10 A
- inhibition of the hERG channel ([3]; concentrations up to 30 µM (44.6 µg/mL)): no significant inhibition
- inhibition at 0.1 µM ([3]; human, HEK293 cells expressing hERG, pH 7.4, 0.1 µM): -0.37%
- inhibition at 0.3 µM ([3]; human, HEK293 cells expressing hERG, pH 7.4, 0.3 µM): -5.86%
- inhibition at 1 µM ([3]; human, HEK293 cells expressing hERG, pH 7.4, 1 µM): -5.54%
- inhibition at 3 µM ([3]; human, HEK293 cells expressing hERG, pH 7.4, 3 µM): -4.07%
- inhibition at 10 µM ([3]; human, HEK293 cells expressing hERG, pH 7.4, 10 µM): 1.37%
- inhibition at 30 µM ([3]; human, HEK293 cells expressing hERG, pH 7.4, 30 µM): -6.44%
- fraction unbound at 4 h, 10 µM [4]: 0.227
